Test results from ChEMBL document CHEMBL4359925, “Rational discovery of a highly novel and selective mTOR inhibitor” (Bioorg Med Chem Lett, 2019).
Active and inactive are the calls of the source. No cut-off for these calls is given here.

How the values were obtained:
786-0 = test: Antitumour activity against human 786-O cells in xenograft model assessed as tumour growth inhibition at 30 mg/kg, qd; format: functional, organism-based
MIA PaCa-2 = test: Antiproliferative activity against human MIAPaCa2 cells; format: functional, cell-based
[1] = Half-life in rat at 31 mg/kg, po; format: ADME, organism-based; details: in vivo
NCI-H929 = test: Antiproliferative activity against human NCI-H929 cells; format: functional, cell-based
[2] = Tmax in rat at 4.1 mg/kg, po; format: ADME, organism-based; details: in vivo
A549 = test: Synergistic antiproliferative activity against human A549 cells harboring LKB1 mutant in presence of erlotinib; format: functional, cell-based
[3] = Half-life in rat at 3 mg/kg, po; format: ADME, organism-based; details: in vivo
[4] = Half-life in mouse at 26 mg/kg, po; format: ADME, organism-based; details: in vivo
[5] = Tmax in rat at 3 mg/kg, po; format: ADME, organism-based; details: in vivo
[6] = Half-life in dog at 0.45 mg/kg, po; format: ADME, organism-based, Canis lupus familiaris; details: in vivo
[7] = Cmax in rat at 4.1 mg/kg, po; format: ADME, organism-based; design: dose 4.1 mg/kg, route oral; details: in vivo
A498 = test: Antiproliferative activity against human A498; format: functional, cell-based
[8] = Cmax in rat at 31 mg/kg, po; format: ADME, organism-based; design: dose 31 mg/kg, route oral; details: in vivo
[9] = Half-life in rat at 93 mg/kg, po; format: ADME, organism-based; details: in vivo
[10] = Cmax in mouse at 2.8 mg/kg, iv; format: ADME, organism-based; design: dose 2.8 mg/kg, route intravenous; details: in vivo
[11] = biological target: Serine/threonine-protein kinase mTOR (Homo sapiens, UniProt P42345); test: Inhibition of human mTOR measured after 30 mins in presence of ATP by Lanthascreen TR-FRET assay
[12] = Half-life in rat at 160 mg/kg, po; format: ADME, organism-based; details: in vivo
[13] = Half-life in rat at 4.9 mg/kg, po; format: ADME, organism-based; details: in vivo
[14] = Cmax in rat at 95 mg/kg, po; format: ADME, organism-based; design: dose 95 mg/kg, route oral; details: in vivo
[15] = Tmax in rat at 4.9 mg/kg, po; format: ADME, organism-based; details: in vivo
[16] = Cmax in rat at 0.8 mg/kg, iv; format: ADME, organism-based; design: dose 0.8 mg/kg, route intravenous; details: in vivo
[17] = Clearance in dog at 0.2 mg/kg, iv; format: ADME, organism-based, Canis lupus familiaris; details: in vivo
NCI-H1975 [18] = test: Additive antiproliferative activity against human NCI-H1975 cells harboring EGFR […]/T790M mutant in presence of erlotinib; format: functional, cell-based
[19] = Tmax in rat at 83 mg/kg, po; format: ADME, organism-based; details: in vivo
[20] = Volume of distribution at steady state in mouse at 10.4 mg/kg, iv; format: ADME, organism-based; details: in vivo, read-out: Vdss
[21] = Clearance in rat at 0.8 mg/kg, iv; format: ADME, organism-based; details: in vivo
NCI-H1395 [22] = test: Antiproliferative activity against human NCI-H1395 cells; format: functional, cell-based
[23] = biological target: Phosphatidylinositol 4,5-bisphosphate 3-kinase catalytic subunit alpha isoform (Homo sapiens, UniProt P42336); test: Inhibition of PI3K alpha (unknown origin)
NCI-H1975 [24] = test: Additive antiproliferative activity against human NCI-H1975 cells harboring EGFR […]/T790M mutant in presence of gemcitabine; format: functional, cell-based
[25] = Cmax in dog at 0.2 mg/kg, iv; format: ADME, organism-based, Canis lupus familiaris; design: dose 0.2 mg/kg, route intravenous; details: in vivo
[26] = Half-life in mouse at 10.4 mg/kg, iv; format: ADME, organism-based; details: in vivo
[27] = Half-life in dog at 30 mg/kg, po; format: ADME, organism-based, Canis lupus familiaris; details: in vivo
NCI-H460 [28] = test: Synergistic antiproliferative activity against human H460 cells harboring KRAS […] mutant in presence of erlotinib
[29] = Cmax in dog at 10 mg/kg, po; format: ADME, organism-based, Canis lupus familiaris; design: dose 10 mg/kg, route oral; details: in vivo
[30] = Tmax in rat at 93 mg/kg, po; format: ADME, organism-based; details: in vivo
[31] = Clearance in mouse at 2.8 mg/kg, iv; format: ADME, organism-based; details: in vivo
NCI-H1650 = test: Additive antiproliferative activity against human NCI-H1650 cells harboring EGFR E746-A750del mutant in presence of gemcitabine; format: functional, cell-based
NCI-H1395 [32] = test: Additive antiproliferative activity against human NCI-H1395 cells harboring LKB1 mutant in presence of gemcitabine; format: functional, cell-based
[33] = Half-life in mouse at 8.7 mg/kg, po; format: ADME, organism-based; details: in vivo
[34] = Half-life in mouse at 2.8 mg/kg, iv; format: ADME, organism-based; details: in vivo
[35] = Cmax in rat at 160 mg/kg, po; format: ADME, organism-based; design: dose 160 mg/kg, route oral; details: in vivo
MCF7 = test: Antiproliferative activity against human MCF7; format: functional, cell-based
[36] = Half-life in rat at 83 mg/kg, po; format: ADME, organism-based; details: in vivo
[37] = Half-life in rat at 95 mg/kg, po; format: ADME, organism-based; details: in vivo
[38] = Tmax in rat at 95 mg/kg, po; format: ADME, organism-based; details: in vivo
BXPC-3 = test: Antiproliferative activity against human BxPC3 cells; format: functional, cell-based
NCI-H460 [39] = test: Antiproliferative activity against human H460 cells; format: functional, cell-based
[40] = Cmax in rat at 83 mg/kg, po; format: ADME, organism-based; design: dose 83 mg/kg, route oral; details: in vivo

Chain of Phosphatidylinositol 4,5-bisphosphate 3-kinase catalytic subunit alpha isoform (P42336 whole entry, canonical isoform): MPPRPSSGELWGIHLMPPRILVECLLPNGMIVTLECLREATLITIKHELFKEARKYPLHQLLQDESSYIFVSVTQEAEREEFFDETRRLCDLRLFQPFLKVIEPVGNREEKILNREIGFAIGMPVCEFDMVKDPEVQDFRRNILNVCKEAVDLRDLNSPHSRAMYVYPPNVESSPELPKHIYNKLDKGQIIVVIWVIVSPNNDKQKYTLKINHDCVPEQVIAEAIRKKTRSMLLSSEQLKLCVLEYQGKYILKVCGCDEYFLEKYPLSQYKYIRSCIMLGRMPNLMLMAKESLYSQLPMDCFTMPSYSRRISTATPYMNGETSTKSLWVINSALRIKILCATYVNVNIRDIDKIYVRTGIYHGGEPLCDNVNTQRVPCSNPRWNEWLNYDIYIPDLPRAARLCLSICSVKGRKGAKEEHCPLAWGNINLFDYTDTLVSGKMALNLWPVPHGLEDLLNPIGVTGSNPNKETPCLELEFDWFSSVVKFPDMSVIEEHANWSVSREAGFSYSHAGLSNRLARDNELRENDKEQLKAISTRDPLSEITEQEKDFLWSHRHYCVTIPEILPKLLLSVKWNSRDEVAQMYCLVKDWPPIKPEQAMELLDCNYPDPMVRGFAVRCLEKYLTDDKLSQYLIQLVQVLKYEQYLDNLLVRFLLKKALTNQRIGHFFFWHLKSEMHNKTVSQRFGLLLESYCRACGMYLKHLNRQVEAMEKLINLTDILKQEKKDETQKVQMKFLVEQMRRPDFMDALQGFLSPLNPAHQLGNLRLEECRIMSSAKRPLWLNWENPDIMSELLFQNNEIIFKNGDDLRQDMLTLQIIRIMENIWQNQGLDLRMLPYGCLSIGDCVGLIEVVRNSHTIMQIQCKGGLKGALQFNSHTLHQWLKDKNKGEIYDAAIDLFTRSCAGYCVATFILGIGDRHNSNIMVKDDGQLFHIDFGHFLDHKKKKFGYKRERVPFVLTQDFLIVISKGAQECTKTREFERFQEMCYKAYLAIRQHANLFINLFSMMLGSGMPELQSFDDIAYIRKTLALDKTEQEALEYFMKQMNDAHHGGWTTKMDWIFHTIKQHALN

CC(F)(F)CN1C(=O)[C@]2(C)COCCN2c2nc(-c3ccc(NC(=O)NC4CC4)cc3)ncc21
TGI (786-0): Active
Activity (MIA PaCa-2): Active
half-life [1]: 8.7 to 18.6 h
Activity (NCI-H929): Active
Tmax [2]: 4 h
Activity (A549): Active
half-life [3]: 10.3 h
half-life [4]: 9.2 h
Tmax [5]: 6.7 h
half-life [6]: 10.3 h
Cmax [7]: 150 ng/mL
Activity (A498): Active
Cmax [8]: 1910 to 2700 ng/mL
half-life [9]: 23.4 h
Cmax [10]: 6860 ng/mL
IC50 [11]: 12.6 nM
half-life [12]: 21.4 h
half-life [13]: 5.5 h
Cmax [14]: 2610 ng/mL
Tmax [15]: 3.3 h
Cmax [16]: 873 ng/mL
clearance [17]: 3.3 mL/min/kg
Activity (NCI-H1975 [18]): Active
Tmax [19]: 14 h
Vd [20]: 1.16 L/kg
clearance [21]: 6.9 mL/min/kg
Activity (NCI-H1395 [22]): Active
IC50 [23]: 1260 nM
Activity (NCI-H1975 [24]): Active
Cmax [25]: 278 ng/mL
half-life [26]: 2 h
half-life [27]: 9.2 h
Activity (NCI-H460 [28]): Active
Cmax [29]: 549 ng/mL
Tmax [30]: 8.7 h
clearance [31]: 8.5 mL/min/kg
Activity (NCI-H1650): Active
Activity (NCI-H1395 [32]): Active
half-life [33]: 2.3 h
half-life [34]: 2.7 h
Cmax [35]: 7700 ng/mL
Activity (MCF7): Active
half-life [36]: 5.4 h
half-life [37]: 33.9 h
Tmax [38]: 13.3 h
Activity (BXPC-3): Active
Activity (NCI-H460 [39]): Active
Cmax [40]: 2370 ng/mL
